For test [1], the system named is PDE IV. As to the kind of experiment: Inhibition of PDE isoenzymes: PDE IV (PDE4, cytosol of human neutrophils, cAMP substrate). The test is classed as biochemical.
Procedure: PDE inhibition is then determined by the presence or absence of substrate degradation products. […] The relative ability of an inhibitory compound to slow or prevent the degradation of tritiated cyclic nucleotides is one test that is indicative of how well the compound in question selects one or more of each isoform to inhibit.
In practice, the in vitro selectivity of a PDE IV inhibitor may vary depending upon the condition under which the test is performed and on the inhibitors being tested. However, for the purposes of this specification, the selectivity of a PDE IV inhibitor can be measured as a ratio of the in vitro IC50 value for inhibition of any other isoform of the phosphodiesterase enzyme (Z) other than PDE IV, divided by the IC50 value for inhibition of PDE IV (PDE Z IC50/PDE IV IC50), where Z identifies any PDE other than PDE IV. As used herein, the term “IC50” refers to the concentration of a compound that is required to produce 50% inhibition of phosphodiesterase activity. […]
After preincubation for 5 min at 37° C., the reaction isstarted by the addition of substrate (cAMP or cGMP) and the assays are incubated for further 15 min at 37° C. […] The columns are elutedwith 2 ml of 30 mM ammonium formate (pH 6.0) and the eluate is counted for radioactivity. Results are corrected for blank values (measured in the presence of denatured protein) that are below 5% of total radioactivity. […]
The test system of test [2] is T1, PDE IV.
T1 construct: other: reported in Hatzelmann et al., JPET 297(1):267-279 (2001)
As to conditions: reported in Hatzelmann et al., JPET 297(1):267-279 (2001); read-out: IC50 for roflumilast activity on PDE IV; cited from earlier work.

Another test concerns PDE I. As to conditions: reported in Hatzelmann et al., JPET 297(1):267-279 (2001); read-out: IC50 for roflumilast activity on PDE I; cited from earlier work.

Structures are written as SMILES.

`O=C(Nc1c(Cl)cncc1Cl)c1ccc(OC(F)F)c(OCC2CC2)c1` [roflumilast, 3-(cyclopropylmethoxy)-N-(3,5-dichloropyridin-4-yl)-4-(difluoromethoxy) benzamide]: the “selectivity for PDE IV as compared with PDE V (PDE V IC50/PDE IV IC50)” value in the test on PDE IV [1] (8/0.0008) is recorded as “at least 10,000”. The “selectivity for PDE IV as compared with PDE I (PDE I IC50/PDE IV IC50)” value with PDE IV [1] (>10/0.0008) is “at least 12,500”. For the same molecule, the IC50 is 0.8 nM with PDE IV [2] and above 10000 nM in the test on PDE I.

Usually IC50 stands for the midpoint of a concentration-inhibition curve.

Source of the values: patent US20060083714A1, “Combination of a pde iv inhibitor and a tnf-alpha antagonist” (priority 2003, published 2006).
